These results are taken from patent publication US6242173A, “Immunoassays for catalytically-active, serine proteases” (University of Vermont and State Agriculatural College, priority 1992, dated 2001).

Entries after “also recorded” stand apart in the source; their conditions may differ.

The target in one assay is T1, factor VIIa (hVIIa) (Homo sapiens, UniProt P08709).
T1 construct: Human factor VII was converted to VIIa by incubation for 1 hour with a 0.2% (w/w) aliquot of human Xa; from tissue; host or cells: fresh frozen human plasma; VII converted to VIIa with human Xa, or VIIa already present in the isolate
T1 sequence (P08709 213-466 limits assumed): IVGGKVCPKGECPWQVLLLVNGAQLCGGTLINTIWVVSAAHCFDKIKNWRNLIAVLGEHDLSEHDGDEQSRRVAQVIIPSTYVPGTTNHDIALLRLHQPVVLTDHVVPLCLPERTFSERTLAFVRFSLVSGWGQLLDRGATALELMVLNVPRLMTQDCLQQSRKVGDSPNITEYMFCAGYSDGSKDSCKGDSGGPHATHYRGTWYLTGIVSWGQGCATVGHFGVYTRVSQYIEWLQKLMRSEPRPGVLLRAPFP
T1 sequence (P08709 61-212 partner limits assumed): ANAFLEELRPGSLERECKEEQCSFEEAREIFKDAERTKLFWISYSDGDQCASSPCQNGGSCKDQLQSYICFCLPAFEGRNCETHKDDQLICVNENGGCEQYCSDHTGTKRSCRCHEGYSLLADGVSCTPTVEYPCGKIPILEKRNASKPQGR
Put plainly: Screening of protein/BC-PPACK reactions, avidin-biotin-peroxidase blot. It counts as binding. The conditions noted are these: 10 fold molar excess twice, overnight. On the procedure: (§1) Samples of purified enzymes, zymogens, or enzyme-zymogen mixtures were treated with BC-PPACK as follows: 10-30 μg samples of protein at 0.5 mg/mL in Hepes (20 mM)/NaCl (150 mM) pH=7.4 was reacted with 10 fold molar excess of BC-PPACK for 30 minutes, followed by a second 10 fold aliquot and overnight incubation at room temperature. Samples were then reduced with 2-mercapto-ethanol and prepared for PAGE gel electrophoresis either on 12×12 cm or PhastGel systems. After electrophoresis, the gels were blotted to nitrocellulose using tris/glycine methanol transfer buffer. The nitrocellulose was then blocked with TWEEN reagent, washed with tris/glycine and reacted with avidin-biotin-peroxidase. Development with 4-chloronapthtalene visualized the biotinylated proteins.

In another assay the target is T2, factor Xa (hXa) (Homo sapiens, UniProt P00742).
T2 construct: from tissue; host or cells: fresh frozen human plasma
The description is as above. It counts as binding. The conditions noted are these: 10 fold molar excess twice, overnight. The procedure:
as §1

The target of the next assay is T3, hII (Homo sapiens, UniProt P00734).
T3 construct: Except as noted, all proteins were isolated from fresh frozen human plasma; from tissue; host or cells: fresh frozen human plasma
The assay is described as above. Type of assay: binding. As to conditions: zymogen; 10 fold molar excess twice, overnight. The procedure: as §1

For another assay, the target named is T4, hVII (Homo sapiens, UniProt P08709).
T4 construct: Except as noted, all proteins were isolated from fresh frozen human plasma; from tissue; host or cells: fresh frozen human plasma
T4 sequence (P08709 61-466): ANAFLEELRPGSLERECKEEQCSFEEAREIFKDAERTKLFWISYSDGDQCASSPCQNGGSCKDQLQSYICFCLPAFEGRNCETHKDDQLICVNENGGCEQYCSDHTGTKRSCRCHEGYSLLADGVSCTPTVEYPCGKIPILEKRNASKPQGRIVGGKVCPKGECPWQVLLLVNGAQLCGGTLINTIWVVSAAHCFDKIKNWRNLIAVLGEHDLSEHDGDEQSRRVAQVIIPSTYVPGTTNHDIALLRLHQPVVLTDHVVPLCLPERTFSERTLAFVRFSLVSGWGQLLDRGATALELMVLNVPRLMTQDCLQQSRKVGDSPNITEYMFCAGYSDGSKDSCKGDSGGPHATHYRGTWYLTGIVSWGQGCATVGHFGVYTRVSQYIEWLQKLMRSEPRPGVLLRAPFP
The assay is described as above. As to conditions: zymogen; 10 fold molar excess twice, overnight. It counts as binding. On the procedure: as §1

Another assay deals with T5, hX (Homo sapiens, UniProt P00742).
T5 construct: Except as noted, all proteins were isolated from fresh frozen human plasma; from tissue; host or cells: fresh frozen human plasma
Described as above. As to conditions: zymogen; 10 fold molar excess twice, overnight. It counts as binding. The procedure: as §1

A further assay concerns the target T6, thrombin (hIIa) (Homo sapiens, UniProt P00734).
T6 construct: from tissue; host or cells: fresh frozen human plasma
Described as above. It counts as binding. As to conditions: 10 fold molar excess twice, overnight. The procedure:
as §1

Assay [1] concerns tissue plasminogen activator (tTPA) (1 and 2 chain). Described as above. It counts as binding, human. As to conditions: 10 fold molar excess twice, overnight. The procedure: as §1
Plasminogen was isolated by passing thawed, aprotinin treated plasma over lysine-Sepharose and eluting the bound plasminogen with ε-aminocaproic acid (ECAC) (Castellino, F. J. and Powell, J. R. (1980) Methods Enzymol. 80:365-378). A second pass over the lysine SEPHAROSE gel, followed by separation from aprotinin on SEPHAROSE gel G-100 gave plasminogen which was homogeneous when evaluated by gel electrophoresis. Plasmin was prepared from plasminogen by treatment with 1:200 (weight:weight) of urokinase in Hepes/saline. Tissue plasminogen activator (tPA) was recombinant human tPA (Genentech) and contained both single chain and two chain forms. Urokinase was a generous gift from Dr. David Stump and was two chain.

The next assay concerns activated human plasma. In words: Reaction of activated human plasma with BC-YGR-CK, blot. As to conditions: thromboplastin and Ca+2 (4 mM) activated plasma, timed aliquots, final CK concentration 1.2 μM. On the procedure: Normal human plasma (200 μL) at 37° C. was activated with thromboplastin (10 μL) and Ca^+2 (4 mM). At timed intervals, 20 uL aliquots were removed and added to 2 μL aliquots of […] BC-YGR-CK (final CK concentration was 1.2 μM). A clot was observed after 122 seconds. The samples were then run on PhastGel electrophoresis and blotted to nitrocellulose.

For another assay, the target named is T7, factor VIIa (Homo sapiens, UniProt P08709).
T7 construct: Human factor VII was converted to VIIa by incubation for 1 hour with a 0.2% (w/w) aliquot of human Xa; from tissue; host or cells: fresh frozen human plasma; VII converted to VIIa with human Xa, or VIIa already present in the isolate
T7 sequence (P08709 213-466 limits assumed): T1 sequence (P08709 213-466 limits assumed)
T7 sequence (P08709 61-212 partner limits assumed): T1 sequence (P08709 61-212 partner limits assumed)
Put plainly: Removal of active enzyme from zymogen with biotinylated chloromethyl ketone and avidin matrix. As to conditions: human factor VII containing factor VIIa; listed as BioCap-YGRck.

The target of a further assay is T8, hPg (Homo sapiens, UniProt P00747).
T8 construct: Plasminogen was isolated by passing thawed, aprotinin treated plasma over lysine-Sepharose; from tissue; host or cells: human plasma (lysine-Sepharose)
In words: Screening of protein/BC-PPACK reactions, avidin-biotin-peroxidase blot. It counts as binding. The conditions noted are these: zymogen; 10 fold molar excess twice, overnight. The procedure:
as §1

The next assay deals with T9, plasmin (hPm) (Homo sapiens, UniProt P00747).
T9 construct: Plasmin was prepared from plasminogen by treatment with 1:200 (weight:weight) of urokinase; from tissue; host or cells: human plasma (lysine-Sepharose)
The description is as above. As to conditions: 10 fold molar excess twice, overnight. Type of assay: binding. On the procedure: as §1

In the next assay the target is avidin (Gallus gallus, UniProt P02701). In words: Avidin-biotin interaction (fluorescein-avidin, avidin-acrylic, avidin-peroxidase blotting). The conditions noted are these: free compound, column fractions in 1.0 mM HCl.
The target in another assay is T10, thrombin (Homo sapiens, UniProt P00734).
T10 construct: from tissue; host or cells: fresh frozen human plasma
In words: Blocking of the reaction of thrombin with synthetic substrate S2238. It counts as biochemical. The conditions noted are these: solution in 1.0 mM HCl. On the procedure: FPRck.2HCl (Calbiochem) (5.0 mg, […]) was dissolved in methanol (1.0 mL) and treated with 2,6-dansyl chloride (Molecular Probes) (2.6 mg, 9.5 μmoles) in DMF (1.0 mL). The solution was mixed and treated with 4-methylmorpholine (20 μL, 16 μmoles). After 20 minutes at 25° C., the reaction was stopped by addition of 1.0 M HCl (100 μL) and the mixture was applied directly to a SEPHADEX LH-20 column (1×30 cm, in methanol). The elution was followed by fluorescence, A280, Sakaguchi stain and thin layer chromatography. The product appeared as a single fluorescent, Sakaguchi positive spot Rf =0.14 (2:1 chloroform:methanol on Bakerflex silica gel). The pooled sample was evaporated to an oil and taken up in 1.0 mM HCl. […] The solution was lyophilized to an oil which was taken up in 10.0 mM HCl (3.8 mL) and frozen. Final concentration (determined by A360) was 1.0 mM. Yield was 3.8 μmoles or 40%.
Factor Xa: In a one mL cuvette, 22.5 μM S2222 in Hepes/saline pH=7.4 was treated with 1-10 μL of the factor Xa preparation. The mixture was stirred briefly and the absorbance at 405 nm followed in a Cary 219 UV/visible spectrophotometer. The rate was taken for the initial linear phase. Similar methods were used for thrombin (S2238), plasmin (S2251) and tPA (S2238). Hemker, H. C. (1983) in Handbook of Synthetic Substrates: For the Coagulation and Fibrinolytic Systems. Martinus Nijhogg Publishers, Boston.

Assay [2] has as its target T11, Human Xa (Homo sapiens, UniProt P00742).
T11 construct: from tissue; host or cells: fresh frozen human plasma
Put plainly: Fluorophore-protein ratios by absorbance. It counts as binding. The conditions noted are these: isolated labeled protein.

The target in a further assay is bovine Xa (Bos taurus, UniProt P00743). Put plainly: Fluorophore-protein ratios by absorbance. The conditions noted are these: isolated labeled protein. Type of assay: binding.
Another assay addresses tissue factor (Homo sapiens, UniProt P13726). Put plainly: Blocking of tissue factor, tissue factor specific activity. It counts as biochemical.
Assay [3] has as its target T11, Human Xa. Put plainly: Reaction of Human Xa with BC-PPACK, residual activity vs. S2222. It counts as biochemical.

Sequence of tissue plasminogen activator (tTPA) (1 and 2 chain) (P00750 311-562 limits assumed): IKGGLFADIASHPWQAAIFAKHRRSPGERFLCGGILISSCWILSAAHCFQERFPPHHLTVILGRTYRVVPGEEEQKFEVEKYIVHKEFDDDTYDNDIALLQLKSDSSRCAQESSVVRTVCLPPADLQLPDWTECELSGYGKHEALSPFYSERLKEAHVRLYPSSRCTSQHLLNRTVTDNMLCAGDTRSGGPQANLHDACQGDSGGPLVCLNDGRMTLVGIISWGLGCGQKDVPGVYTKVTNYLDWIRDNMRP
T11 sequence (P00742 235-488 limits assumed): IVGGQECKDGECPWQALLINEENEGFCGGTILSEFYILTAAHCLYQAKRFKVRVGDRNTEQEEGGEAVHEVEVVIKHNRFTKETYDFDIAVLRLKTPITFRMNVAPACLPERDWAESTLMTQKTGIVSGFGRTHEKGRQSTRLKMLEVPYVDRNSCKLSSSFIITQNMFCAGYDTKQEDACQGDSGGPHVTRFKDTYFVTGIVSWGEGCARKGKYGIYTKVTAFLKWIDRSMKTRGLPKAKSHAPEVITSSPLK
T11 sequence (P00742 41-179 partner limits assumed): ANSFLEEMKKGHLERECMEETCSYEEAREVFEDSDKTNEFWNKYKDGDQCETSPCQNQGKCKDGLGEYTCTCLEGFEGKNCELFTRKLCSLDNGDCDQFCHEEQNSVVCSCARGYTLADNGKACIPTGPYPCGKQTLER
T2 sequence (P00742 235-488 limits assumed): as the sequence (P00742 235-488 limits assumed) above
T2 sequence (P00742 41-179 partner limits assumed): as the sequence (P00742 41-179 partner limits assumed) above
T5 sequence (P00742 183-488 limits assumed): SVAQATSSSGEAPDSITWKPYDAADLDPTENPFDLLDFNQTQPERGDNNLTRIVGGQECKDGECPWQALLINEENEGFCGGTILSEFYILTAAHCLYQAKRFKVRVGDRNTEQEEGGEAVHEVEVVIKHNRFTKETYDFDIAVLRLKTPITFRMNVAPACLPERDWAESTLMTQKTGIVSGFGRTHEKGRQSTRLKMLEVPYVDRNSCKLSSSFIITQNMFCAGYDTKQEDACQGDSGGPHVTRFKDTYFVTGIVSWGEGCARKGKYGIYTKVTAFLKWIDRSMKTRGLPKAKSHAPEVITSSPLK
T5 sequence (P00742 41-179 partner limits assumed): as the sequence (P00742 41-179 partner limits assumed) above
Sequence of tissue factor (P13726 33-295): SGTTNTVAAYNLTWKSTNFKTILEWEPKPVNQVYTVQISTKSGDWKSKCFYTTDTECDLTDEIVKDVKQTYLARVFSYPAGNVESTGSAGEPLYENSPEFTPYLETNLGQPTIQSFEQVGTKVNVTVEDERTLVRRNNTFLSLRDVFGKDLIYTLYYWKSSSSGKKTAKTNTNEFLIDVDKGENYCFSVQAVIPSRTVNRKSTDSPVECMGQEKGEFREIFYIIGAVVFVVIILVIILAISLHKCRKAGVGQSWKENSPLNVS
T8 sequence (P00747 20-810 limits assumed): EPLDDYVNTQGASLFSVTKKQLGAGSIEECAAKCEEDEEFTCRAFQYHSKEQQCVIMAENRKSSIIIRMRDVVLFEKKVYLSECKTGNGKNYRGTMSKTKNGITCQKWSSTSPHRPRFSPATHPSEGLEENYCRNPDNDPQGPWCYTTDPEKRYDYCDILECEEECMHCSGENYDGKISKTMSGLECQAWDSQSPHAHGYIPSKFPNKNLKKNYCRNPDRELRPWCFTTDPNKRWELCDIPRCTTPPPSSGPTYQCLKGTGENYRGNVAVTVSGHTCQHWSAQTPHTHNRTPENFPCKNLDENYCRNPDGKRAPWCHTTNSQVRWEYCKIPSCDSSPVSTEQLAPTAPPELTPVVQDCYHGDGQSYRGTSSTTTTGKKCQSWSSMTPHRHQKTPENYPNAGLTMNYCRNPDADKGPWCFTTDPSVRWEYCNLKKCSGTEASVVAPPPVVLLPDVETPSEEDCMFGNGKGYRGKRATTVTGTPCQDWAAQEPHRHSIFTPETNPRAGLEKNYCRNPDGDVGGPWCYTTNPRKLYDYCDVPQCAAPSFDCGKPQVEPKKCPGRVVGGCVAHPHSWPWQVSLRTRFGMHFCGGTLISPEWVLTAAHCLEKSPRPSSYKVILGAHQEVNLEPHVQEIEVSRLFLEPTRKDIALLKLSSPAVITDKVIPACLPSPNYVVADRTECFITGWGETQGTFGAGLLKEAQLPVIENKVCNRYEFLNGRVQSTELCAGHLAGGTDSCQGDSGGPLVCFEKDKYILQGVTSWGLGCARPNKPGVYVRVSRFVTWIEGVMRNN
T9 sequence (P00747 581-810 limits assumed): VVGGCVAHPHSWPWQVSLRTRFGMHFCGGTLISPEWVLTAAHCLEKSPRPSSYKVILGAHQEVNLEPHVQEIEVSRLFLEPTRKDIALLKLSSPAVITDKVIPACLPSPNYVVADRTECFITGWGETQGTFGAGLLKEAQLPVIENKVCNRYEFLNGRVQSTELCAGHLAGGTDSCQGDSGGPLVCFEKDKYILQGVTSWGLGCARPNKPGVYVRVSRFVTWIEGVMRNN
T9 sequence (P00747 97-580 partner limits assumed): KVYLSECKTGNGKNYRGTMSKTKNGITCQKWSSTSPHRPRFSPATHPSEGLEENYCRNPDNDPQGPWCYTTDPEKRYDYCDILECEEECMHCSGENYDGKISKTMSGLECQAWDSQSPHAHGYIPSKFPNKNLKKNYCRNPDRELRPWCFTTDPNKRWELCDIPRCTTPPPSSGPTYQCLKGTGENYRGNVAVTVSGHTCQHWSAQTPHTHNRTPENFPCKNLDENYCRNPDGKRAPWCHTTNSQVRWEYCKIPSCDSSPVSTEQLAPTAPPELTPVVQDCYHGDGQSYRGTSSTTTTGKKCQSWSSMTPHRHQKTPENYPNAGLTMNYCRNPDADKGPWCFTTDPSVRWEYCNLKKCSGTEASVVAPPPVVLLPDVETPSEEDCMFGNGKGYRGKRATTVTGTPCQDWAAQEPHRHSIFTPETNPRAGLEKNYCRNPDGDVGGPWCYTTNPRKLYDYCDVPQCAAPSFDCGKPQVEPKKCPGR
Sequence of bovine Xa (P00743 234-492 limits assumed): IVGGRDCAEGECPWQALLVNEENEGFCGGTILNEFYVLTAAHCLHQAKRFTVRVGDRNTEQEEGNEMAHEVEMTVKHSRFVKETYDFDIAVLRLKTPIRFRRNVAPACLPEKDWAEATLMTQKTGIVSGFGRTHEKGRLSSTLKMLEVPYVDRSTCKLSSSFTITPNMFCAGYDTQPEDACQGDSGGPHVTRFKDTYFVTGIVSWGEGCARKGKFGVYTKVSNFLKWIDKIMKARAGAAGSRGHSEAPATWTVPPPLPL
Sequence of bovine Xa (P00743 41-180 partner limits assumed): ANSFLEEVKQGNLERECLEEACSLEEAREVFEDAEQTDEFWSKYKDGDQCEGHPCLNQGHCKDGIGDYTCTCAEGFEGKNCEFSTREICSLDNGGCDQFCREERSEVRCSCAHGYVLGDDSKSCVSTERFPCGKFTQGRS
Sequence of avidin (P02701 25-152): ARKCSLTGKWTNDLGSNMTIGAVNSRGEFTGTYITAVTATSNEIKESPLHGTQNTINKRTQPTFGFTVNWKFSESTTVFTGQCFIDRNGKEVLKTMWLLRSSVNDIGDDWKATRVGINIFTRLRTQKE

Consider “Biotinyl-ε-aminocaproyl-L-tyrosylglycyl-L-arginine chloromethyl ketone [BC-YGR-CK]”, for which the “biotinylated protein on blot” value at factor VIIa (hVIIa), at factor Xa (hXa), at hII, on hVII, on hX and on thrombin (hIIa) was “Identical results” throughout. Further, in assay [1], the “biotinylated protein on blot” value is given as “Identical results”. Moreover, the “biotinylated proteins on blot of activated plasma” value in the assay on activated human plasma is “several biotinylated proteins”. Moreover, the “factor VIIa remaining after treatment and avidin matrix, gel analysis” value at factor VIIa is “no factor VIIa remained; also recorded: no contamination with factor VIIa”.
Regarding “Biotinyl-D-phenylalanyl-L-prolyl-L-arginine Chloromethyl Ketone [Biotinyl-PPACK]”, the “biotinylated protein on blot” value on factor VIIa (hVIIa), on factor Xa (hXa), at hII, on hPg, on hVII and at hX was “none of the proteins showed a positive blot” in each case. For the same compound, the “biotinylated protein on blot” value (at plasmin (hPm); at thrombin (hIIa); in assay [1]) was “none of the proteins showed a positive blot” in each case. The “enhancement of the fluorescence of fluorescein-avidin” value on avidin is “positive”.
Regarding `CN(C)c1ccc2cc(S(=O)(=O)N[C@H](Cc3ccccc3)C(=O)N3CCC[C@H]3C(=O)N[C@@H](CCCNC(=N)N)C(=O)CCl)ccc2c1.Cl` [2,6-dansyl-FPRck.HCl, 6-Dimethylaminonapthalene-2-sulfonyl-D-phenylalanyl-L-prolyl-L-arginine chloromethyl ketone hydrochloride], at thrombin, the “blocking of reaction of thrombin with S2238” value is listed as “rapidly blocked”.
Consider “5 (and 6) Carboxylfluoresceinyl-L-glutamylglycyl-L-arginine chloromethyl ketone hydrochloride [Fluoresceinyl-EGRCk]”, for which the Fluorophore/Protein on Human Xa [2] is 1.06 mole/mole; on bovine Xa, 1.02 mole/mole.
For `O=C(O)c1cc[c]([Hg][Cl])cc1` [p-chloromercuribenzoate], at tissue factor (100 µM, 2 hours), the “decrease of specific activity of tissue factor” value is 10-20%.
“biotinyl-ε-aminocaproyl-D-phenylalanyl-L-prolyl-L-arginine chloromethyl ketone [BC-PPACK]”: the “relative activity (vs. S2222)” value is listed as 0.62 on Human Xa [3] (0.46 equivalents added); 0.13 at Human Xa [3] (0.92 equivalents added); 0.01 on Human Xa [3] (1.38 equivalents added); 0.00 on Human Xa [3] (1.84 equivalents added); 0.00 on Human Xa [3] (2.76 equivalents added). The “biotinylated protein on blot” value is reported as “positive” at factor VIIa (hVIIa); “positive” on factor Xa (hXa); “No reaction” on hII; “No reaction” at hPg; “No reaction” on hVII; “No reaction” at hX. The “biotinylated protein on blot” value (at plasmin (hPm); on thrombin (hIIa); in assay [1]) was “positive” each time.
For the compound `NC(N)=NCCC[C@H](NC(=O)[C@@H]1CCCN1C(=O)[C@H](N)Cc1ccccc1)C(=O)CCl` [FPRck], the “decrease of specific activity of tissue factor” value on tissue factor (1.0 mM, 24 hours) is 10-20%.
